Values quoted from earlier work, collected in US5648564A, “Process for the formation, isolation and purification of comestible xanthophyll crystals from plants” (Kemin Industries, Inc., priority 1995, dated 1997).

Test system: not given
Conditions: consumption of lutein and zeaxanthin (reported jointly)
For `CC1=C(/C=C/C(C)=C/C=C/C(C)=C/C=C/C=C(C)/C=C/C=C(C)/C=C/C2=C(C)C[C@@H](O)CC2(C)C)C(C)(C)C[C@H](O)C1` [zeaxanthin], the “reduction in age-related macular degeneration” value is listed as 40%. For `CC1=C[C@H](O)CC(C)(C)[C@H]1/C=C/C(C)=C/C=C/C(C)=C/C=C/C=C(C)/C=C/C=C(C)/C=C/C1=C(C)C[C@@H](O)CC1(C)C` [lutein], the “reduction in age-related macular degeneration” value is given as 40%.

Test system: rat
Conditions: oral
For `CCOC(C)=O` [Ethyl Acetate], the LD50 is listed as 11.3 mL/kg. In the case of `c1ccncc1` [Pyridine], the LD50 is listed as 1.58 mL/kg. In the case of `CC(O)CO` (stereo not drawn) [Propylene Glycol, 1,2-propanediol], the LD50 is given as 25 mL/kg. For `ClC(Cl)Cl` [Chloroform], the LD50 is listed as 2.18 mL/kg.
